# Experimental data as given in patent US20230250096A1, “SUBSTITUTED PHENYL-1H-PYRROLO[2,3-c] PYRIDINE DERIVATIVES” (Janssen Pharmaceutica NV, priority 2021, published 2023).
# Where two headings read alike, the source gives them in different places.
# Tests used:
# MOLM14 cells = test: Proliferation assay (spheroid confluence, 8 days), MOLM14; format: cell-based, human; details: read-out: spheroid assay_MOLM14 IC50
# Experimental: The anti-proliferative effect of menin/MLL protein/protein interaction inhibitor test compounds was assessed in human leukemia cell lines. The cell line MOLM14 harbors a MLL translocation and expresses the MLL fusion protein MLL-AF9, respectively, as well as the wildtype protein from the second allele. OCI-AML3 cells that carry the NPM1c gene mutation were also tested. […] KO-52 was used as a control cell line containing two MLL (KMT2A) wildtype alleles in order to exclude compounds that display general cytotoxic effects.
# MOLM14 cells were cultured in RPMI-1640 (Sigma Aldrich) supplemented with 10% heat-inactivated fetal bovine serum (HyClone), 2 mM L-glutamine (Sigma Aldrich) and 50 μg/ml gentamycin (Gibco). KO-52 and OCI-AML3 cell lines were propagated in alpha-MEM (Sigma Aldrich) supplemented with 20% heat-inactivated fetal bovine serum (HyClone), 2 mM L-glutamine (Sigma Aldrich) and 50 μg/ml gentamycin (Gibco).
# In order to assess the anti-proliferative effects, 200 MOLM14 cells, 200 OCI-AML3 cells or 300 KO-52 cells were seeded in 200 μl media per well in 96-well round bottom, ultra-low attachment plates (Costar, catalogue number 7007). Cell seeding numbers were chosen based on growth curves to ensure linear growth throughout the experiment. Test compounds were added at different concentrations and the DMSO content was normalized to 0.3%. Cells were incubated for 8 days at 37° C. and 5% CO2. Spheroid like growth was measured in real-time by live-cell imaging (IncuCyteZOOM, Essenbio, 4×objective) acquiring images at day 8. Confluence (%) as a measure of spheroid size was determined using an integrated analysis tool.
# In order to determine the effect of the test compounds over time, the confluence in each well as a measure of spheroid size, was calculated. Confluence of the highest dose of a reference compound was used as baseline for the LC (Low control) and the confluence of DMSO treated cells was used as 0% cytotoxicity (High Control, HC).
# Absolute IC50 values were calculated as percent change in confluence as follows:
# LC=Low Control: cells treated with e.g. 1 μM of the cytotoxic agent staurosporin, or e.g. cells treated with a high concentration of an alternative reference compound
# HC=High Control: Mean confluence (%) (DMSO treated cells)
# % Effect=100−(100*(Sample−LC)/(HC−LC))
# GraphPad Prism (version 7.00) was used to calculate the IC50. Dose-response equation was used for the plot of % Effect vs Log10 compound concentration with a variable slope and fixing the maximum to 100% and the minimum to 0%.
# MEIS1 mRNA expression = MEIS1 mRNA expression assay (Quantigene Singleplex) in MOLM14 cells; format: cell-based, human; details: 48 hours incubation
# Method in brief: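 MOLM14 cells, 3,750/well, exposed to increasing compound concentrations for 48 h. MEIS1 mRNA measured by QuantiGene Singleplex branched-DNA hybridization (lysis 45 min, hybridization 18–22 h, both 55 °C), normalized to RPL28. IC50 fitted to background-corrected fold change versus DMSO.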
# [1] = target: T1, menin/MLL (terbium chelate-labeled menin, FITC-MBM1 peptide) (Homo sapiens, UniProt O00255, T541A); test: Menin/MLL homogenous time-resolved fluorescence (HTRF) assay; format: binding; details: 30 min incubation
# T1 construct: Menin (a.a 1-610-6xhis tag, 2.3 mg/mL in 20 mM Hepes)
# T1 sequence (O00255 with tags, fused parts or gaps T541A): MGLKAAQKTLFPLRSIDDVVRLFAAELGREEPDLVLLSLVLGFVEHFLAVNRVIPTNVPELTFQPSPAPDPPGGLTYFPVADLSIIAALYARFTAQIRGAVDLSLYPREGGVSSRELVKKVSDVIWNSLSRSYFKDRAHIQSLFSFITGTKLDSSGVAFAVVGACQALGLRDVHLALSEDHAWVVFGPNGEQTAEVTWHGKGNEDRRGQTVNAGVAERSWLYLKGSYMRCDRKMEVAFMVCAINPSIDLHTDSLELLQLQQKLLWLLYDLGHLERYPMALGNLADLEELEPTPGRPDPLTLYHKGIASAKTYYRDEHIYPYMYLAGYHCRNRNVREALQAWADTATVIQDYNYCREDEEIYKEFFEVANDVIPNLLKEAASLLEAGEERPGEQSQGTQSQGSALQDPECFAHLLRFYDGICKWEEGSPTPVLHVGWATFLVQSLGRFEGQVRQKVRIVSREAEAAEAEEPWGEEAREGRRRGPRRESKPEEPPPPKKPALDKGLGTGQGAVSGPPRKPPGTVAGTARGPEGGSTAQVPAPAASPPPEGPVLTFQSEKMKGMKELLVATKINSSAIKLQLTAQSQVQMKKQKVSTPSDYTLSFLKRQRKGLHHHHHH
# Method in brief: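 Terbium-labeled menin (a.a. 1-610, His-tagged; […]) pre-incubated 30 min with compound, then 75 nM FITC-MBM1 peptide added for 15 min at ambient temperature in Tris pH 7.5 buffer, 0.5% DMSO. HTRF 520/490 nm ratio read; IC50 from 11-point four-fold titrations, typically from 10 μM.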
SMILES,"IC50 (MOLM14 cells; Homo sapiens, MOLM-14, MOLM14) [nM]","IC50 (MEIS1 mRNA expression; Homo sapiens, MOLM-14, 48 h) [nM]",IC50 [1] [nM],IC50 (MOLM14 cells; MOLM14) [nM],IC50 (MEIS1 mRNA expression) [nM]
Cc1cncc2c1c(C[C@H]1CCN(CC3CCC(=O)NC3)C1)cn2-c1ccc(F)cc1C(=O)N(C)C(C)C (mixture of isomers) [Compound 88],96,140,0.093,–,–
Cc1cncc2c1c(C[C@@H]1CCN(CC3CCN(C)C(=O)C3)C1)cn2-c1ccc(F)cc1C(=O)N(C)C(C)C (mixture of isomers) [Compound 171],337,> 1000,0.581,–,–
"CC(=O)N1CCC(C)(CN2CC[C@H](Cc3cn(-c4ccc(F)cc4C(=O)N(C)C(C)C)c4cncc(C)c34)C2)CC1 (single isomer, unassigned) [Compound 122]",12,18,0.05,–,–
"Cc1cncc2c1c(CC1CCN(CC3(C)CCN(C(=O)CO)CC3)C1)cn2-c1ccc(F)cc1C(=O)N(C)C(C)C (single isomer, unassigned) [Compound 123]",16,31,0.052,–,–
"Cc1cncc2c1c(CC1CCN(CC3CCN(C(=O)C(C)(C)C#N)CC3)C1)cn2-c1ccc(F)cc1C(=O)N(C)C(C)C (single isomer, unassigned) [Compound 126]",18,32,0.091,–,–
"CC(=O)N1CCC([C@@H](C)N2CC(Cc3cn(-c4ccc(F)cc4C(=O)N(C)C(C)C)c4cncc(C)c34)C2)CC1 (single isomer, unassigned) [Compound 150]",1470,> 1000,0.43,–,–
"CNC(=O)[C@H]1CC[C@H]([C@@H](C)N2CC(Cc3cn(-c4ccc(F)cc4C(=O)N(C)C(C)C)c4cncc(C)c34)C2)CC1 (single isomer, unassigned) [Compound 162]",424,> 1000,0.505,–,–
"CNC(=O)[C@H]1CC[C@H]([C@H](C)N2CC(Cc3cn(-c4ccc(F)cc4C(=O)N(C)C(C)C)c4cncc(C)c34)C2)CC1 (single isomer, unassigned) [Compound 163]",456,~623,0.192,–,–
"CC(=O)N1CC([C@@H](C)N2CC[C@@H](Cc3cn(-c4ccc(F)cc4C(=O)N(C)C(C)C)c4cncc(C)c34)C2)C1 (single isomer, unassigned) [Compound 175]",234,~1050,1.33,–,–
"CC(=O)N1CC([C@H](C)N2CC[C@@H](Cc3cn(-c4ccc(F)cc4C(=O)N(C)C(C)C)c4cncc(C)c34)C2)C1 (single isomer, unassigned) [Compound 176]",46,306,0.2,–,–
CC(=O)N1CCC(CN2CC[C@@H](Cc3cn(-c4ccc(F)cc4C(=O)N4CCC(O)C4C)c4cncc(C)c34)C2)CC1 (stereo in doubt) [Compound 325],1050,1340,0.337,–,–
CC(=O)N1CCC(CN2CC[C@@H](Cc3cn(-c4ccc(F)cc4C(=O)N(C)C(C)C)c4cncc(C)c34)C2)CC1 [Compound 51],8,–,0.042,–,–

# Now from value to molecule:
"IC50 (MOLM14 cells; Homo sapiens, MOLM-14, MOLM14) [nM]","IC50 (MEIS1 mRNA expression; Homo sapiens, MOLM-14, 48 h) [nM]",IC50 [1] [nM],IC50 (MOLM14 cells; MOLM14) [nM],IC50 (MEIS1 mRNA expression) [nM],SMILES
113,221,0.227,–,–,"Cc1cncc2c1c(C[C@H]1CCN([C@H](C)C3CCOCC3)C1)cn2-c1ccc(F)cc1C(=O)N(C)C(C)C (single isomer, unassigned) [Compound 49a]"
–,–,0.105,117,206,"CN=S(=O)(c1cc(F)ccc1-n1cc(CC2CCN(CC3CCOCC3)C2)c2c(C)cncc21)C(C)C (single isomer, unassigned) [Compound 77a]"
200,416,0.382,–,–,"Cc1cncc2c1c(C[C@@H]1CCN(CC3CCOCC3)C1)cn2-c1ccc(F)cc1[S@@](=N)(=O)C(C)C (single isomer, unassigned) [Compound 78c]"
–,–,0.27,300,411,"COCC(=O)N1CCC(C(C)N2CCC(Cc3cn(-c4ccc(F)cc4C(=O)N(C)C(C)C)c4cncc(C)c34)C2)CC1 (single isomer, unassigned) [Compound 117b]"
40,65,0.045,–,–,"CN=[S@](=O)(c1cc(F)ccc1-n1cc(C[C@H]2CCN(CC3CCN(C(C)=O)CC3)C2)c2c(C)cncc21)C(C)C (single isomer, unassigned) [Compound 128b]"
89,419,0.104,–,–,"CN=[S@@](=O)(c1cc(F)ccc1-n1cc(C[C@H]2CCN(CC3CCN(C(C)=O)CC3)C2)c2c(C)cncc21)C(C)C (single isomer, unassigned) [Compound 128d]"
10,52,0.082,–,–,"Cc1cncc2c1c(C[C@@H]1CCN(C[C@H]3CCCCO3)C1)cn2-c1ccc(F)cc1C(=O)N(C)C(C)C (single isomer, unassigned) [Compound 147a]"
154,249,0.209,–,–,"CNC(=O)[C@H]1CC[C@H](CN2CC([C@@H](C)c3cn(-c4ccc(F)cc4C(=O)N(C)C(C)C)c4cncc(C)c34)C2)CC1 (single isomer, unassigned) [Compound 164a]"
49,38,0.084,–,–,"CN=[S@](=O)(c1cc(F)ccc1-n1cc(CC2CN(CC3CCOCC3)C2)c2c(C)cncc21)C(C)C (single isomer, unassigned) [Compound 166a]"
120,256,0.226,–,–,"CN=[S@@](=O)(c1cc(F)ccc1-n1cc(CC2CN(CC3CCOCC3)C2)c2c(C)cncc21)C(C)C (single isomer, unassigned) [Compound 166b]"
210,> 1000,0.19,–,–,"Cc1cncc2c1c(CC1CN(CC3CCOCC3)C1)cn2-c1ccc(F)cc1[S@](=N)(=O)C(C)C (single isomer, unassigned) [Compound 167a]"
99,117,0.118,–,–,"Cc1cncc2c1c(CC1CN(CC3CCOCC3)C1)cn2-c1ccc(F)cc1[S@@](=N)(=O)C(C)C (single isomer, unassigned) [Compound 167b]"
17,15,0.061,–,–,"Cc1cncc2c1c(C[C@@H]1CCN(C[C@H]3CCNC(=O)CC3)C1)cn2-c1ccc(F)cc1C(=O)N(C)C(C)C (single isomer, unassigned) [Compound 169a]"
87,~220,0.195,–,–,"Cc1cncc2c1c(C[C@@H]1CCN(C[C@@H]3CCNC(=O)CC3)C1)cn2-c1ccc(F)cc1C(=O)N(C)C(C)C (single isomer, unassigned) [Compound 169b]"
12,19,0.067,–,–,"Cc1cncc2c1c(C[C@@H]1CCN(CC3CCOCC3)C1)cn2-c1ccc(F)cc1C(=O)N1CCC[C@@]1(C)CO (single isomer, unassigned) [Compound 362b]"
